Bridge positions count the residues as written; N and C are the ends. Ends that are not written are not given here.
Key:
[1] = tested on: V1R-Qpep sensor; experiment: FRET measurement with GPMV-V1R-Qpep sensors; format: biochemical; details: bicine-mediated GPMVs, 100 nM
[2] = tested on: α1AR-Ipep sensor; details: bicine-mediated GPMVs, 100 μM

## [Arg^8]vasopressin (CYFQNCPRG-NH2; disulfide 1-6) [[Arg^8]vasopressin (AVP), full agonist of V1R]
[1]
  ΔFRET level with full agonist: comparable to those obtained in the other experiments described herein

## CNC[C@H](O)c1ccc(O)c(O)c1 [epinephrine]
[2]
  ΔFRET level with full agonist: comparable to those obtained in the other experiments described herein
